Data as given in US20240390487A1, “TLR AGONISTS FOR REDUCING ACTIVATION-INDUCED PD-1 EXPRESSION ON T CELLS AND METHODS OF USE” (WISCONSIN ALUMNI RESEARCH FOUNDATION, priority 2016, published 2024).

Experiments:
[1] = test system: OT-1 transgenic splenocytes; test: In vitro stimulation of OT-1 splenocytes with peptide antigen in the presence of TLR agonists, surface markers by flow cytometry; assay type: cell-based, mice; set-up: key to 4-1BB / PD-1 / LAG3 / CD160 / CD244.2 / BTLA / VISTA: “+” means increase; “−” means decrease; “=” means no change; “=/+” or “=/−” means the change is there but not significant; “=/+” or “=/−” means the change is there but not significant; details: for 4-1BB / LAG3 / PD-1: OT-1 splenocytes, high affinity antigen plus TLR agonist, versus antigen alone
Experimental: T cell activation was measured by the levels of marker 4-1BB (a/k/a CD137, a member of the TNF receptor superfamily). The level of PD-1 expression was also assessed in these cells (FIG. 1B).
There was no difference in LAG3 expression between the control cells and cells treated with any of the assayed TLR agonists.
OT-1 transgenic splenocytes were treated with high affinity antigen in combination with Pam3CSK4 (TLR1 and 2 agonist), Gardiquimod (TLR7 agonist) or no TLR agonist and the levels of different checkpoint markers or T cell stimulation (measured by 4-1BB, FIG. 5) were assayed. The checkpoint markers BTLA (FIG. 6), VISTA (FIG. 7), CD160 (FIG. 8) and CD244.2 (FIG. 9) were assayed.
TLR stimulation at the time of T-cell activation in vitro affects expression of PD-1. Given that CpG-rich DNA is a TLR9 agonist and Lm is a TLR2 agonist, we questioned whether TLR stimulation with different ligands could similarly affect expression of different T-cell checkpoint inhibitors. […] OT-1 splenocytes were stimulated in vitro with peptides of different affinity for MHC class I (high-affinity SIINFEKL peptide (SEQ ID NO:1, OVA), moderate-affinity SIINTEKL peptide (SEQ ID NO:2, FT), or low-affinity SIINFEKP peptide (SEQ ID NO:7, LP)), alone or in the presence of different TLR ligands (TLR 1/2 (Pam3CSK4), TLR 3 (Poly I:C), TLR 4 (MPLAs), TLR 7 (Gardiquimod), TLR 7/8 (R848), or TLR 9 (ODN1826)). […] Similarly, LAG-3 expression increased by day 3, but was not affected by the presence of different TLR ligands. […] This reduction in PD-1 expression was observed most with the high-affinity SIINFEKL (SEQ ID NO:1) epitope, but also observed following activation with lower affinity epitopes. Given these findings, we evaluated expression of multiple other T-cell checkpoint molecules following T-cell activation in the presence of TLR ligands. […] Cytotoxic T-lymphocyte-associated protein 4 (CTLA-4) expression, however, was increased in the presence of TLR1/2 agonist. Similar results were found activating OT-1 cells with the lower affinity FT (SIINTEKL peptide (SEQ ID NO:2)), LP (SIINFEKP peptide (SEQ ID NO:7), or LY (SIINFEKY, SEQ ID NO:8) epitopes (FIG. 19).
In vitro T-cell stimulation: Spleens were collected from OT-1 mice, processed through a mesh screen, and splenocytes were isolated by centrifugation after red blood cell osmotic lysis with ammonium chloride/[…] lysis buffer (0.15 M NH4Cl, 10 mM KHCO3, 0.1 mM EDTA). Splenocytes were cultured at 2×10^6/mL in RPMI 1640 medium supplemented with L-glutamine, 10% fetal calf serum (FCS), 200 U/mL penicillin/streptomycin, 1% sodium pyruvate, 1% HEPES, 50 μM β-MeOH, and 2 μg/mL of the designated peptide. TLR agonists were all purchased from InvivoGen (San Diego, CA) and added one hour before peptides at the following optimal concentrations based on preliminary studies and previously reported results: 300 ng/ml Pam3CSK4, 10 μg/mL Poly(I:C) HMW, 10 μg/ml MPLAs, 3 μg/ml Gardiquimod, 10 μg/ml R848, 5 μM ODN 1826. At the time points indicated, cells were stained, fixed for 15 min at 4° C. in cytofix (BD Biosciences (BD), San Jose, CA; 554655), and frozen in FCS+10% DMSO. After all time points were collected, cells from all times were thawed, rinsed and resuspended in PBS+3% FCS+1 mM EDTA and analyzed by flow cytometry. Cells were stained for 30 min at 4° C. in a 1:4 dilution of brilliant stain buffer (BD 563794) in PBS+3% FCS+1 mM EDTA. In order to assess co-stimulation, blocking antibodies for CD80 (0.6 μg/mL), CD86 (0.25 μg/mL) or OX40L (0.6 μg/mL) were added 1 hour prior to antigen.

OT-1 CD8+ T cells = test: Adoptive transfer of OT-1 T cells and immunization of C57BL/6 mice, marker expression on splenic OT-1 T cells; assay type: in vivo
Description: Vaccine type can affect expression of T-cell checkpoint molecules on activated CD8+ T cells: This Example used an ovalbumin vaccination model. OT-1 cells were adoptively transferred to naïve C57BL/6 mice. The day after transfer, mice were immunized once with (a) DNA encoding ovalbumin, (b) Listeria monocytogenes (Lm) encoding ovalbumin, (c) OVA257-264 peptide (SIINFEKL (SEQ ID NO:1)), (d) SIINFEKL peptide (SEQ ID NO:1) with DNA vector, (e) DNA vector alone, (f) Lm encoding control vector with no antigen, or (g) NS (non-specific) peptide. Splenocytes were collected the day after vaccination for expression of cell surface markers on antigen-specific OT-1 cells. […] LAG-3 expression was not reduced in the presence of Lm co-administered with peptide.
TLR stimulation at the time of T-cell activation reduced expression of PD-1 in vivo: To determine whether TLR stimulation at the time of T-cell activation with vaccination elicited a similar reduction in PD-1 in vivo, OT-1 cells were adoptively transferred to naïve C57BL/6 mice as above, and immunized once with OVA or FT peptide (or non-specific peptide) one day later in the presence or absence of a TLR 1/2, TLR7, or TLR9 ligand. Splenocytes were collected from groups up to 14 days after immunization and evaluated for expression of 4-1BB, PD-1 and LAG-3.
Adoptive transfer and immunization of wild type C57BL/6 (B6) mice: OT-1 splenocytes were harvested and CD8+ T cells were isolated as described above. 2×10^6 OT-1 T cells were adoptively transferred into 6- to 10-week old female B6 mice via intraperitoneal injection. The day following transfer, mice were immunized subcutaneously with 100 μg SIINFEKL peptide (SEQ ID NO:1) in PBS without adjuvant, intradermally with 100 μg plasmid encoding full length secreted chicken egg ovalbumin (pCI-neo-sOVA (psOVA), Addgene plasmid #25098, Cambridge, MA), intraperitoneally with 5×10^6 cfu of a Listeria monocytogenes vector encoding ovalbumin (Lm-OVA, gift of JD Sauer), or vehicle or corresponding wild-type Lm or DNA plasmid vector. TLR agonists were co-injected with the vaccine at the following concentrations: 20 μg/mouse Pam3CSK4, 100 μg/mouse Gardiquimod, 50 μg/mouse ODN 1826, or vehicle. Mice were euthanized at the times indicated. Spleens were collected, processed as described above, and T-cell populations analyzed by flow cytometry. Data collected on different days were normalized using rainbow beads (Spherotech, Lake Forest, IL; RFP-30-5A).

[2] = test system: ovalbumin-expressing E.G7 cells; test: Ovalbumin tumor treatment study: peptide immunization with or without TLR agonist; assay type: in vivo, mice; details: FT peptide relative to high-affinity OVA peptide
Experimental: OT-1 T cells were then adoptively transferred and the following day were immunized with SIINFEKL (SEQ ID NO:1, OVA) or FT peptide (SEQ ID NO:2) alone or with TLR1/2 or TLR7 agonist. Other groups were immunized with 100 μg anti-PD-1 antibody delivered the following day. […] This anti-tumor effect was not observed with TLR agonist treatment alone (FIG. 22). […] This was associated with a reduced PD-1 (but not LAG-3) expression on CD8+ TIL (FIG. 17C).
Ovalbumin tumor treatment studies: 10^6 ovalbumin-expressing E.G7 PD-L 1^high cells were injected subcutaneously into 6- to 10-week old female B6 mice. Ten to fifteen days post injection, when tumors were palpable and similarly sized (˜0.2 cm^3), 2×10^6 naïve OT-1 CD8+ T cells were adoptively transferred to each mouse as described above. The following day mice were immunized subcutaneously with 100 μg of an individual peptide (SIINFEKL (SEQ ID NO:1) or variant, LifeTein) in PBS, with or without TLR agonists as described above. In the group receiving PD-1 blocking antibody, 100 μg of antibody (clone G4 (52)) was injected intraperitoneally on the day following vaccination. Tumor volume was measured over time using calipers and calculated in cubic centimeters according to the following formula: (π/6)*(long axis)*(short axis)^2. Tumors obtained at necropsy were digested in media containing 1 mg/mL collagenase and 20 μg/mL DNAse I (Sigma, St. Louis, MO) for 1-2 hours at 37° C. and passed through a 100-μm screen to obtain a single-cell suspension. Tumor cells and tumor-infiltrating lymphocytes (TILs) were stained and analyzed by flow cytometry using the following panel: CD3-FITC (BD 555274), CD4-BUV395 (BD 563790), CD8-BUV805 (BD 564920), LAG-3-BV711 (BD 563179), PD1-PECF594 (BD 562523), PDL1-PECy7 (BD 558017), 41BB-PerCPeF710) (eBioscience 46-1371-82), CD45-BV510 (BD 563891) and Live/Dead Ghost dye 780 (Tonbo, San Diego, CA 13-0865-T100) or corresponding fluorescently labeled IgG controls.

Q: Which 4-1BB [1] does the source give for CCOCc1nc2c(N)nc3ccccc3c2n1CC(C)(C)O [R848, Resiquimod] here?
A: =

Q: What about the LAG3 [1] of the same molecule?
A: =

Q: What about the PD-1 [1] of the same molecule?
A: −

Q: Which 4-1BB [1] does the source give for ODN1826 here?
A: =

Q: And the LAG3 [1]?
A: =/−

Q: What about the PD-1 [1] of the same molecule?
A: −

Q: What about the “PD-1 expression on activated T cells” value ([1]; in words, SIINFEKL plus TLR agonist versus antigen alone, up to 4 days) of the same molecule?
A: significantly reduced

Q: And the “PD-1 expression on OT-1 CD8+ T cells in vivo” value (OT-1 CD8+ T cells; OVA or FT peptide immunization with TLR ligand versus peptide alone, splenocytes up to 14 days, early after T-cell activation)?
A: significantly reduced

Q: For SIINFEKL [SIINFEKL peptide], which “T-cell activation as measured by 4-1BB expression, by peptide affinity” value ([1]; OVA versus FT and LP peptides) is on record?
A: greatest T-cell activation

Q: And the “LAG-3 expression by vaccine type” value (OT-1 CD8+ T cells; one immunization, splenocytes after vaccination, Lm co-administered with peptide)?
A: significantly increased

Q: What about the “4-1BB expression by vaccine type” value (OT-1 CD8+ T cells; one immunization, splenocytes after vaccination, Lm or DNA co-administered at the site of peptide immunization) of the same molecule?
A: strongest activation

Q: And the “PD-1 expression by vaccine type” value (OT-1 CD8+ T cells; one immunization, splenocytes after vaccination, Lm or DNA co-administered with peptide versus peptide)?
A: significantly increased

Q: With SIINTEKL [FT peptide] as the molecule, how does the “anti-tumor response of peptide immunization alone” value [2] read?
A: greater anti-tumor response
